According to patent US7622634B2 (priority 2001, dated 2009):

Experiments:
Pdr5p = Pdr5p (Saccharomyces cerevisiae, UniProt P33302); conditions: Kolaczkowski et al. 1996, 1998; cited from earlier work
[1] = system: yeast AD3 strain expressing AtPDR1; conditions: YPD plates containing the alkaloid
[2] = system: Transgenic BY-2 cells expressing AtPDR1; conditions: compared to the control GUS expressing line
tobacco BY-2 cells = conditions: Nicotiana tabacum
wild type yeast = conditions: YPD plates, growth evaluated after two days at 28° C.
Wild type BY-2 cells = conditions: MSST plates, growth evaluated after 15 days at 26° C.
[3] = system: BY-2 cell lines expressing the different yeast Pdr5 transporters; conditions: compared to the control GUS-expressing lines
[4] = system: BY-2 cells transformed with pK7WGD2-ScPDR5-US50; test: Hyoscyamine-induced cell death (Evans blue) in the ScPDR5-US50 line; assay type: cell-based, Nicotiana tabacum; conditions: 30 mM hyoscyamine, US50 lines compared to GUS control line
Method: FIG. 2: Hyoscyamine-induced cell death in transformed BY-2 cells. […] Cell death was assayed at two time points (6 hours and 24 hours) by Evans blue staining and is indicated as the fold increase in optical density at OD600 relative to the value at the start of the experiment. Values are the mean of three independent experiments. GUS, US50, W303 and AT represent BY-2 cell lines transformed with pK7WGD2-GUS, pK7WGD2-ScPDR5-US50, pK7WGD2-ScPDR5-W303 and pK7WGD2-AtPDR1 respectively.

HmPDR1 = test: Quantitative RT-PCR of HmPDR1 expression in hairy roots; assay type: cell-based, Hyoscyamus muticus; conditions: 1 mM CdCl2, H2O as a control
Method: FIG. 3: HmPDR1 expression is induced by CdCl2. Quantitative RT-PCR analysis of HmPDR1 in total RNA from H. muticus hairy roots treated with 1 mM CdCl2 or H2O as a control. Ethidium bromide-stained rRNA is used as a control. The fold increase in the ratio of HmPDR1 transcript to rRNA fluorescence, relative to the value at time point zero, is given below the panels. Time after elicitation is indicated in hours.
To confirm the postulated relationship between the expression of ABC transporter genes and the CdCl2 induced release of alkaloids we performed an expression analysis of the HmPDR1 gene in CdCl2 treated Hyoscyamus hairy roots (FIG. 3).

Chain of Pdr5p (P33302 whole entry): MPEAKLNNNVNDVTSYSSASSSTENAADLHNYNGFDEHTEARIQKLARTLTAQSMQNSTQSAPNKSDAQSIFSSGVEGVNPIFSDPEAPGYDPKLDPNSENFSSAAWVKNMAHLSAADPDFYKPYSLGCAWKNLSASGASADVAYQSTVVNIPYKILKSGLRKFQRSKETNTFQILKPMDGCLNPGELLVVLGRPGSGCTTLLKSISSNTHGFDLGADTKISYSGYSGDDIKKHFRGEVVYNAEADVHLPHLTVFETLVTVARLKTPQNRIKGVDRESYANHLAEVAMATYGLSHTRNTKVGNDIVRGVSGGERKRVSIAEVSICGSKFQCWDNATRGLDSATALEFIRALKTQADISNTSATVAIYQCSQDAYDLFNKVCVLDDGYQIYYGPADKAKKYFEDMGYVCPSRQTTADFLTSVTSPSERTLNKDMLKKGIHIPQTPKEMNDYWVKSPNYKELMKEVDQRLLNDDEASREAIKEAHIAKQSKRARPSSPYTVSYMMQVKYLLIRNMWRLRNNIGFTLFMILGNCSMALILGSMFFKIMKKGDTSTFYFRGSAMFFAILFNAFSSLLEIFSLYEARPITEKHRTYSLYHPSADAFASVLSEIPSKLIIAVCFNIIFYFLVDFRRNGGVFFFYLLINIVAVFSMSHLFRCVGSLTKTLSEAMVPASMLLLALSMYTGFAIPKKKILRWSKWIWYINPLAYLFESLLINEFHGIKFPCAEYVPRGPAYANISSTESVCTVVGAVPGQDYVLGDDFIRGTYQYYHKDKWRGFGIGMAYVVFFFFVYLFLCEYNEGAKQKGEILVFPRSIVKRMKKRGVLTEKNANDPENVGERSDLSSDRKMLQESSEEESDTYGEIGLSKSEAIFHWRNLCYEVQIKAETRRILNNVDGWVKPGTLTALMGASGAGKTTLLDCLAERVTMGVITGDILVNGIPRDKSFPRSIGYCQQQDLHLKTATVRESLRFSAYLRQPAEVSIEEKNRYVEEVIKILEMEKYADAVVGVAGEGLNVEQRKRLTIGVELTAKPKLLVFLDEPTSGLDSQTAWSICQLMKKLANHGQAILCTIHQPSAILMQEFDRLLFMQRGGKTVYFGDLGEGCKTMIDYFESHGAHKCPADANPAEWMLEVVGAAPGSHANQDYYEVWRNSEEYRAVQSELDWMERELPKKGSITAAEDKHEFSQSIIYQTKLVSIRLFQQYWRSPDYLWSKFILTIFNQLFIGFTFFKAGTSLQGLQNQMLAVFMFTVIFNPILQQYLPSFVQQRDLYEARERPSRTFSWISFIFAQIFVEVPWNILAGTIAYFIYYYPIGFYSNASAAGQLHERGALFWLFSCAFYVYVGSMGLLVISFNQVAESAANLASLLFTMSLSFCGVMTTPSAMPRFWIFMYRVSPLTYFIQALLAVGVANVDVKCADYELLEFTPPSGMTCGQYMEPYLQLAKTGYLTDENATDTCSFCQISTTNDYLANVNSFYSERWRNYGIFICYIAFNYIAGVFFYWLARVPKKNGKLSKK

CC[C@]1(O)C[C@@H]2CN(CCc3c([nH]c4ccccc34)[C@@](C(=O)OC)(c3cc4c(cc3OC)N(C)[C@H]3[C@@](O)(C(=O)OC)[C@H](OC(C)=O)[C@]5(CC)C=CCN6CC[C@]43[C@@H]65)C2)C1 [vinblastine]
substrate for Pdr5p mediated multidrug transport (Pdr5p): substrates

CC(=O)O[C@H]1C(=O)[C@@]2(C)[C@H]([C@H](OC(=O)c3ccccc3)[C@]3(O)C[C@H](OC(=O)[C@H](O)[C@@H](NC(=O)c4ccccc4)c4ccccc4)C(C)=C1C3(C)C)[C@]1(OC(C)=O)CO[C@@H]1C[C@@H]2O [taxol]
substrate for Pdr5p mediated multidrug transport (Pdr5p): substrates

CN1CCCC1c1cccnc1 (stereo not drawn) [nicotine]
growth of the pdr5 mutant strain expressing AtPDR1 on the alkaloid [1]: restore the growth
tolerance of AtPDR1 transgenic BY-2 cells [2]: enhanced tolerance
level causing the death of all suspension cultured tobacco cells (tobacco BY-2 cells): 20000 µM
level tolerated by wild type yeast (wild type yeast): 15 mM
level tolerated without severe growth problems (Wild type BY-2 cells): 3000 µM
tolerance in growth performance assay [3]: increased tolerance

CN1[C@@H]2C[C@@H](OC(=O)[C@H](CO)c3ccccc3)C[C@H]1[C@@H]1O[C@@H]12 [scopolamine]
level tolerated by wild type yeast (wild type yeast): 100 mM

CN1[C@@H]2CC[C@H]1C[C@@H](OC(=O)[C@H](CO)c1ccccc1)C2 [hyoscyamine]
decrease in hyoscyamine induced cell death [4]: 15%
level causing the death of all suspension cultured tobacco cells (tobacco BY-2 cells): 50000 µM
level tolerated by wild type yeast (wild type yeast): 50 mM
level tolerated without severe growth problems (Wild type BY-2 cells): 30000 µM

[Cl][Cd][Cl] [CdCl2]
HmPDR1 expression (HmPDR1): upregulated

CC[C@]1(O)C[C@H]2CN(CCc3c([nH]c4ccccc34)[C@@](C(=O)OC)(c3cc4c(cc3OC)N(C=O)[C@H]3[C@@](O)(C(=O)OC)[C@H](OC(C)=O)[C@]5(CC)C=CCN6CC[C@]43[C@@H]65)C2)C1 [vincristine]
substrate for Pdr5p mediated multidrug transport (Pdr5p): substrates
